In ChEMBL document CHEMBL5370538, “Discovery of novel 6-p-tolyl-3-(3,4,5-trimethoxybenzyl)-7H-[1,2,4]triazolo[3,4-b][1,3,4]thiadiazine derivative as a potent tubulin inhibitor with promising in vivo antitumor activity” (Eur J Med Chem, 2023):

How the values were obtained:
[1] = tested on: HeLa; assay: Induction of apoptosis in human HeLa cells assessed as necrotic cells at 0.06 uM incubated for 24 hrs Annexin V-FITC/PI staining based flow cytometry analysis (Rvb= 0.12 %); assay type: functional
[2] = tested on: HeLa; assay: Antiproliferative activity against human HeLa cells assessed as cell growth inhibition incubated for 48 hrs by MTT assay; assay type: functional, cell-based
[3] = tested on: HeLa; assay: Induction of cell cycle arrest in human HeLa cells assessed as accumulation of cells at G0/G1 phase at 0.12 uM incubated for 24 hrs by propidium iodide staining based flow cytometry (reference value: 62.4 %); assay type: functional
[4] = Tmax in Sprague-Dawley rat at 10 mg/kg,po measured upto 24 hrs by LC-MS/MS analysis; assay type: ADME, organism-based; conditions: in vivo
[5] = Volume of distribution at steady state in Sprague-Dawley rat at 2 mg/kg,iv measured upto 24 hrs by LC-MS/MS analysis; assay type: ADME, organism-based; conditions: in vivo
[6] = MRT (0-t) in Sprague-Dawley rat at 2 mg/kg,iv measured upto 24 hrs by LC-MS/MS analysis; assay type: ADME, organism-based; conditions: in vivo
[7] = AUC (0-t) in Sprague-Dawley rat at 2 mg/kg,iv measured upto 24 hrs by LC-MS/MS analysis; assay type: ADME, organism-based; parameters: dose 2 mg/kg, time < 24 hrs, route iv; conditions: in vivo
[8] = Clearance in Sprague-Dawley rat at 2 mg/kg,iv measured upto 24 hrs by LC-MS/MS analysis; assay type: ADME, organism-based; conditions: in vivo
[9] = tested on: HUVEC; assay: Antivascular activity against human HUVEC cells assessed as inhibition of capillary tube formation incubated for 24 hrs by crystal violet staining based matrigel-transwell assay; assay type: functional, cell-based
[10] = tested on: HeLa; assay: Induction of apoptosis in human HeLa cells assessed as viable cells at 0.12 uM incubated for 24 hrs Annexin V-FITC/PI staining based flow cytometry analysis (Rvb= 95.9 %); assay type: functional; conditions: read-out: Activity
[11] = tested on: HeLa; assay: Induction of apoptosis in human HeLa cells assessed as late apoptotic cells at 0.06 uM incubated for 24 hrs Annexin V-FITC/PI staining based flow cytometry analysis (Rvb= 2.13 %); assay type: functional
[12] = Volume of distribution at steady state in Sprague-Dawley rat at 10 mg/kg,po measured upto 24 hrs by LC-MS/MS analysis; assay type: ADME, organism-based; conditions: in vivo
[13] = AUC (0-t) in Sprague-Dawley rat at 10 mg/kg,po measured upto 24 hrs by LC-MS/MS analysis; assay type: ADME, organism-based; parameters: dose 10 mg/kg, time < 24 hrs, route po; conditions: in vivo
[14] = tested on: HeLa; assay: Induction of apoptosis in human HeLa cells assessed as early apoptotic cells at 0.12 uM incubated for 24 hrs Annexin V-FITC/PI staining based flow cytometry analysis (Rvb= 1.85 %); assay type: functional
[15] = tested on: HeLa; assay: Induction of apoptosis in human HeLa cells assessed as necrotic cells at 0.12 uM incubated for 24 hrs Annexin V-FITC/PI staining based flow cytometry analysis (Rvb= 0.12 %); assay type: functional
[16] = tested on: HeLa; assay: Induction of cell cycle arrest in human HeLa cells assessed as accumulation of cells at S phase at 0.03 uM incubated for 24 hrs by propidium iodide staining based flow cytometry (reference value: 20.22 %); assay type: functional
[17] = target: Tubulin (Homo sapiens) (UniProt P68371+Q9H4B7+P0DPH7+P68366+Q13509+Q71U36+P04350+Q3ZCM7+P07437+P68363+Q9BQE3+Q6PEY2+Q13885+Q9BVA1+Q9BUF5); assay: Inhibition of tubulin polymerization (unknown origin) at 10 uM measured for 20 mins in presence of GTP by spectrophotometry analysis relative to control; assay type: protein-complex assay
[18] = tested on: HeLa; assay: Induction of cell cycle arrest in human HeLa cells assessed as accumulation of cells at G2/M phase at 0.03 uM incubated for 24 hrs by propidium iodide staining based flow cytometry (reference value: 17.38 %); assay type: functional
[19] = tested on: HeLa; assay: Induction of cell cycle arrest in human HeLa cells assessed as accumulation of cells at G2/M phase at 0.12 uM incubated for 24 hrs by propidium iodide staining based flow cytometry (reference value: 17.38 %); assay type: functional
[20] = tested on: HeLa; assay: Induction of cell cycle arrest in human HeLa cells assessed as accumulation of cells at S phase at 0.06 uM incubated for 24 hrs by propidium iodide staining based flow cytometry (reference value: 20.22 %); assay type: functional
[21] = Cmax in Sprague-Dawley rat at 2 mg/kg,iv measured upto 24 hrs by LC-MS/MS analysis; assay type: ADME, organism-based; parameters: time < 24 hrs, dose 2 mg/kg, route iv; conditions: in vivo
[22] = AUC (0-infinity) in Sprague-Dawley rat at 10 mg/kg,po measured upto 24 hrs by LC-MS/MS analysis; assay type: ADME, organism-based; parameters: time < 24 hrs, dose 10 mg/kg, route po; conditions: in vivo
[23] = tested on: MDA-MB-231; assay: Antiproliferative activity against human MDA-MB-231 cells assessed as cell growth inhibition incubated for 48 hrs by MTT assay; assay type: functional, cell-based; conditions: MDA-MB-231, 48 h
[24] = Oral bioavailability in Sprague-Dawley rat at 10 mg/kg measured upto 24 hrs by LC-MS/MS analysis; assay type: ADME, organism-based; conditions: in vivo
[25] = Antiproliferative activity against human HEK293 cells assessed as cell growth inhibition incubated for 48 hrs by MTT assay; assay type: toxicity, cell-based
[26] = Half life in Sprague-Dawley rat at 10 mg/kg,po measured upto 24 hrs by LC-MS/MS analysis; assay type: ADME, organism-based; conditions: in vivo
[27] = Toxicity in Balb/c mouse xenografted with human A549 cells assessed as change in body weight at 60 mg/kg,ip administrated for 7 days; assay type: organism-based; conditions: in vivo, 168 h, time 7 day
[28] = tested on: HeLa; assay: Induction of cell cycle arrest in human HeLa cells assessed as accumulation of cells at G2/M phase at 0.06 uM incubated for 24 hrs by propidium iodide staining based flow cytometry (reference value: 17.38 %); assay type: functional
[29] = tested on: HeLa; assay: Induction of apoptosis in human HeLa cells assessed as late apoptotic cells at 0.12 uM incubated for 24 hrs Annexin V-FITC/PI staining based flow cytometry analysis (Rvb= 2.13 %); assay type: functional
[30] = tested on: HT-29; assay: Antiproliferative activity against human HT-29 cells assessed as cell growth inhibition incubated for 48 hrs by MTT assay; assay type: functional, cell-based; conditions: HT-29, 48 h
[31] = tested on: HeLa; assay: Induction of cell cycle arrest in human HeLa cells assessed as accumulation of cells at S phase at 0.12 uM incubated for 24 hrs by propidium iodide staining based flow cytometry (reference value: 20.22 %); assay type: functional
[32] = tested on: A549; assay: Antitumor activity against human A549 cells xenografted in Balb/c mouse assessed as tumor growth inhibition at 60 mg/kg,ip administrated for 7 days; assay type: functional; conditions: A549, 168 h, time 7 day, read-out: TGI
[33] = tested on: HUVEC; assay: Antivascular activity against human HUVEC cells assessed as inhibition of cell migration incubated for 24 hrs by wound healing assay; assay type: functional, cell-based
[34] = Cmax in Sprague-Dawley rat at 10 mg/kg,po measured upto 24 hrs by LC-MS/MS analysis; assay type: ADME, organism-based; parameters: time < 24 hrs, dose 10 mg/kg, route po; conditions: in vivo
[35] = tested on: HeLa; assay: Induction of apoptosis in human HeLa cells assessed as early apoptotic cells at 0.03 uM incubated for 24 hrs Annexin V-FITC/PI staining based flow cytometry analysis (Rvb= 1.85 %); assay type: functional
[36] = MRT (0-t) in Sprague-Dawley rat at 10 mg/kg,po measured upto 24 hrs by LC-MS/MS analysis; assay type: ADME, organism-based; conditions: in vivo
[37] = MRT (0-infinity) in Sprague-Dawley rat at 2 mg/kg,iv measured upto 24 hrs by LC-MS/MS analysis; assay type: ADME, organism-based; conditions: in vivo

## COc1cc(Cc2nnc3n2N=C(c2ccc(C)cc2)CS3)cc(OC)c1OC
[1]
  Activity: 0.46%
[2]
  IC50: 46 nM
[3]
  Activity: 0.51%
[4]
  Tmax: 4.3 h
[5]
  Vdss: 91.5 L/kg
[6]
  MRT last at 24 h: 1.2 h
[7]
  AUC(0-t) at 24 h: 307 ng·h/mL
[8]
  CL: 118 mL/min/kg
[9]
  Activity: Dose-Dependent Effect
[10]
  viability at 0.12 µM: 65.2%
[11]
  Activity: 7.44%
[12]
  Vdss: 1036.2 L/kg
[13]
  AUC(0-t) at 24 h: 122 ng·h/mL
[14]
  Activity: 24%
[15]
  Activity: 1.59%
[16]
  Activity: 19.86%
[17]
  inhibition: 43%
[18]
  Activity: 27.37%
[19]
  Activity: 91.09%
[20]
  Activity: 28.35%
[21]
  Cmax: 670 ng/mL
[22]
  AUC(0-inf): 124 ng·h/mL
[23]
  IC50: 1890 nM
[24]
  bioavailability: 11.6%
[25]
  IC50 at 48 h: > 100000 nM
[26]
  half-life: 4.8 h
[27]
  Activity: Non-Toxic
[28]
  Activity: 69.71%
[29]
  Activity: 9.21%
[30]
  IC50: 570 nM
[31]
  Activity: 8.4%
[32]
  inhibition in vivo at 60 mg/kg: 47.3%
[33]
  Activity: Dose-Dependent Effect
[34]
  Cmax: 28.4 ng/mL
[35]
  Activity: 18.6%
[36]
  MRT last at 24 h: 6.4 h
[37]
  MRT: 1.8 h
